This data set in a line: Storage of concentrated MB-102 salt solution at 4° C. (precipitation). In kind it is physicochemical. Conditions: 64.2 wt % solution in water, 4° C. for 7 days. How it is done:
MB-102 (0.300 g, 0.81 mmol), was placed in a vial (4.0 mL). Water was added (0.8 mL, D.I.) and the mixture sonicated for a brief period of time. To the mixture was added aqueous 6.25 N NaOH (2 equivalents, 1.62 mmol, 0.24 mL, added in portions; 0.020 mL×12 to effect solution) with stirring and brief periods of sonication. […] The final concentration was 300 mg (2R,2′R)-2,2′-((3,6-diaminopyrazine-2,5-dicarbonyl)bis(azanediyl))bis(3-hydroxypropanoic acid), MB-102 per mL water (w/v).
MB-102 (0.30 g, 0.81 mmol) was weighed into a 5 mL v-vial equipped with a Teflon-covered magnetic spin vane. Choline hydroxide in water (Aldrich, 0.43 g of 46 wt %, 1.62 mmol) was added portion-wise with stirring until a solution was obtained. The total weight of the solution was 0.73 g or 64.2 wt % MB-102 di-choline salt (MW: 578.6).

Take `C[N+](C)(C)CCO.C[N+](C)(C)CCO.Nc1nc(C(=O)NC(CO)C(=O)[O-])c(N)nc1C(=O)NC(CO)C(=O)[O-]` (stereo not shown) [MB-102 di-choline salt]: the precipitation on storage result is “no precipitation”.
